Data taken from patent US20140044690A1, “High-Energy Compounds for Use in Alzheimer's and Other Neurodegenerative Diseases” (University Of South Florida, priority 2012, published 2014).

How the values were obtained:
APP α-processing [1] = assay: APP secretion assay (sAPPα release) in human skin fibroblasts from young and aged donors; format: cell-based; conditions: for sAPPα release in aged cells, of the young cell level: aged human skin fibroblasts (donor age 81-96), 0.5 mM each, untreated aged cells 42.5%; for sAPPα level, of the control, co-treatment with rotenone: 0.2 μM rotenone two hours; for sAPPα level, of the control, co-treatment with rotenone / sAPPα level, of the control, co-treatment with H2O2: co-treatment 1.5 mM each; for sAPPα level, of the control, co-treatment with H2O2: 0.2 mM H2O2 two hours
Description: (§1) SH-SY5Y and fibroblast cells were routinely maintained in DMEM supplemented with 10% bovine fetal serum and 100 μg/ml of streptomycine and 100 U/ml of penicillin. For APP secretion assay, the cells were subcultured in the 12-well plate until confluence and then pre-incubated in the serum-free DMEM for 1 hour before the addition of the testing agents. After incubation for 2 hours at 37° C., conditioned medium was collected and cleared by centrifugation. Proteins were precipitated by trichloroacetic acid and processed for gel electrophoresis and Western blotting as described previously (Weidemann et al. 1989; Chen and Fernandez, 2004). A near-infrared dye-conjugated secondary antibody (LI-COR Biosci., NE, USA) was used and visualized with a LI-COR Odyssey Infrared Imaging System.

SH-SY5Y cells = assay: Cell survival and viability MTT assay / microscopy in SH-SY5Y cells; format: cell-based; conditions: for cell survival, of the untreated control, rotenone-induced death: 2 days, pre-incubation 1 mM each; for cell survival, of the control, H2O2-induced death: 0.6 mM H2O2, by 20 hours, pre-treatment 1 mM each; for cell survival in H2O2-induced death (in words): H2O2 (not shown)
Description: SH-SY5Y cells were subcultured in the 12-well plate in DMEM containing 10% fetal bovine serum until 50% confluency. For experiment, the medium was replaced with serum-free DMEM and testing agents were added. The culture was continued in the incubator and parallel samples were taken out at various time intervals for microscopic examination or cell viability assay using an MTT toxicity assay kit (Sigma, Mo.) according to the manufacturer's instructions with modifications (Chen and Fernandez, 2004).

APP α-processing [2] = assay: APP secretion assay (sAPPα release, Western blotting) in SH-SY5Y cells; format: cell-based, human; conditions: for sAPPα release relative to basal line: 1 mM each; for sAPPα release relative to basal line / effect on APP α-processing / APP secretion (in words): 2 hours; for effect on APP α-processing / APP secretion (in words): compared with ATP, acetyl-coA, PCr
Description: as §1

## OO [H2O2, reference compound]
APP α-processing [1]; young fibroblasts, 0.2 mM H2O2, two hours
  sAPPα release, of the young cell control, H2O2 alone: 46.1%
SH-SY5Y cells; 0.6 mM H2O2
  cell death caused by H2O2 alone: killed all cells by 10 hours

## CN(CC(=O)O)C(=N)NP(=O)(O)O [PCr, phosphocreatine]
APP α-processing [2]
  sAPPα release relative to basal line: 4.2 fold
APP α-processing [1]
  sAPPα release in aged cells, of the young cell level: 79.6%
SH-SY5Y cells; 0.2 μM rotenone, MTT
  cell survival, of the untreated control, rotenone-induced death: 42%
SH-SY5Y cells
  cell survival, of the control, H2O2-induced death: 49%

## Nc1nc2c(ncn2[C@@H]2O[C@H](COP(=O)(O)OP(=O)(O)OP(=O)(O)O)[C@@H](O)[C@H]2O)c(=O)[nH]1 [GTP, guanosine triphosphate]
SH-SY5Y cells; 0.2 μM rotenone, MTT
  cell survival, of the untreated control, rotenone-induced death: 17%
SH-SY5Y cells
  cell survival in H2O2-induced death (in words): moderately increased cell survival

## N[C@@H](CCC(=O)O)C(=O)O [glutamate, reference compound]
APP α-processing [2]
  sAPPα release relative to basal line: 2.3 fold

## C=C(OP(=O)(O)O)C(=O)O [PEP, phosphoenol pyruvate]
APP α-processing [1]; young fibroblasts
  sAPPα level, of the control, co-treatment with rotenone: 90.3%
SH-SY5Y cells; 0.2 μM rotenone, MTT
  cell survival, of the untreated control, rotenone-induced death: 53%
SH-SY5Y cells; 0.2 μM rotenone, pre-incubation 1 mM for 30 min
  cell morphology under microscopy, rotenone-induced death: substantially preserved the cell shape and the processes
SH-SY5Y cells
  cell survival, of the control, H2O2-induced death: 38%

## CC(C)(COP(=O)(O)OP(=O)(O)OC[C@H]1O[C@@H](n2cnc3c(N)ncnc32)[C@H](O)[C@@H]1OP(=O)(O)O)[C@@H](O)C(=O)NCCC(=O)NCCS [CoA, coenzyme A, reference compound]
APP α-processing [2]
  effect on APP α-processing / APP secretion (in words): did not show the same effects

## Nc1ncnc2c1ncn2[C@@H]1O[C@H](COP(=O)(O)OP(=O)(O)OP(=O)(O)O)[C@@H](O)[C@H]1O [ATP, adenosine triphosphate]
APP α-processing [2]
  sAPPα release relative to basal line: 3.3 fold
APP α-processing [2]; Homo sapiens, read-out: EC50 for promoting sAPPα release
  EC50: 480 µM
APP α-processing [2]; NaN3 25 mM pre-incubated 15 minutes
  stimulatory effect on sAPPα release in the presence of NaN3: completely abolished
APP α-processing [2]; rotenone 20 μM pre-incubated 15 minutes
  stimulatory effect on sAPPα release in the presence of rotenone: completely abolished
APP α-processing [1]
  sAPPα release in aged cells, of the young cell level: 82.3%
APP α-processing [1]; young fibroblasts
  sAPPα level, of the control, co-treatment with rotenone: 79.2%
  sAPPα level, of the control, co-treatment with H2O2: 89.3%
SH-SY5Y cells; 0.2 μM rotenone, MTT
  cell survival, of the untreated control, rotenone-induced death: 15%
SH-SY5Y cells
  cell survival in H2O2-induced death (in words): moderately increased cell survival

## CC(=O)SCCNC(=O)CCNC(=O)[C@H](O)C(C)(C)COP(=O)(O)OP(=O)(O)OC[C@H]1O[C@@H](n2cnc3c(N)ncnc32)[C@H](O)[C@@H]1OP(=O)(O)O [acetyl-coA, acetyl coenzyme A]
APP α-processing [2]
  sAPPα release relative to basal line: 3.8 fold
APP α-processing [1]; young fibroblasts
  sAPPα level, of the control, co-treatment with H2O2: 74.5%
SH-SY5Y cells; 0.2 μM rotenone, MTT
  cell survival, of the untreated control, rotenone-induced death: 35%
SH-SY5Y cells
  cell survival, of the control, H2O2-induced death: 21%

## Nc1ncnc2c1ncn2[C@@H]1O[C@H](COP(=O)(O)OP(=O)(O)O)[C@@H](O)[C@H]1O [ADP, adenosine diphosphate, reference compound]
APP α-processing [2]
  effect on APP α-processing / APP secretion (in words): did not show the same effects

## CN(CC(=O)O)C(=N)N [Cr, creatine, reference compound]
APP α-processing [2]
  effect on APP α-processing / APP secretion (in words): did not show the same effects

## C=C(C)[C@H]1Cc2c(ccc3c2O[C@@H]2COc4cc(OC)c(OC)cc4[C@@H]2C3=O)O1 [rotenone, reference compound]
APP α-processing [1]; young fibroblasts, 0.2 μM rotenone, two hours
  sAPPα level, of the control, rotenone alone: 52.3%
SH-SY5Y cells; 0.2 μM rotenone, MTT
  cell death caused by rotenone alone: caused all cells to die by 2 days
